Molecular target: T1, human mGluR5d (Homo sapiens, UniProt P41594)
T1 construct: expressed in transfected cells; host or cells: GHEK (HEK cells expressing a glutamate transporter) for the IP3 assay
Assay: Functional assessment of mGluR5 antagonism in cell lines expressing mGluR5d (FLIPR calcium mobilization / IP3 turnover; assay not given)
Format: cell-based
Conditions: cells expressing human mGluR5d; assay (FLIPR or IP3) not stated
From the text: The pharmacological properties of the compounds of the invention can be analyzed using standard assays for functional activity. Examples of glutamate receptor assays are well known in the art as described in for example Aramori et al., Neuron 8:757 (1992), Tanabe et al., Neuron 8:169 (1992), Miller et al., J. Neuroscience 15: 6103 (1995), Balazs, et al., J. Neurochemistry 69:151 (1997). The methodology described in these publications is incorporated herein by reference. Conveniently, the compounds of the invention can be studied by means of an assay that measures the mobilization of intracellular calcium, [Ca^2+]i in cells expressing mGluR5.
Intracellular calcium mobilization was measured by detecting changes in fluorescence of cells loaded with the fluorescent indicator fluo-3. Fluorescent signals were measured using the FLIPR system (Molecular Devices). A two addition experiment was used that could detect compounds that either activate or antagonize the receptor.
For FLIPR analysis, cells expressing human mGluR5d were seeded on collagen coated clear bottom 96-well plates with black sides and analysis of [Ca^2+]i mobilization was done 24 hours after seeding.
FLIPR experiments were done using a laser setting of 0.800 W and a 0.4 second CCD camera shutter speed. Each FLIPR experiment was initiated with 160 μL of buffer present in each well of the cell plate. After each addition of the compound, the fluorescence signal was sampled 50 times at 1 second intervals followed by 3 samples at 5 second intervals. Responses were measured as the peak height of the response within the sample period.
EC50 and IC50 determinations were made from data obtained from 8-point concentration response curves (CRC) performed in duplicate. Agonist CRC were generated by scaling all responses to the maximal response observed for the plate. Antagonist block of the agonist challenge was normalized to the average response of the agonist challenge in 14 control wells on the same plate.
We have validated a secondary functional assay for mGluR5d based on Inositol Phosphate (IP3) turnover. IP3 accumulation is measured as an index of receptor mediated phospholipase C turnover. GHEK cells stably expressing the human mGluR5d receptors were incubated with [3H] myo-inositol overnight, washed three times in HEPES buffered saline and pre-incubated for 10 minutes with 10 mM LiCl. Compounds (agonists) were added and incubated for 30 minutes at 37° C. Antagonist activity was determined by pre-incubating test compounds for 15 minutes, then incubating in the presence of glutamate (80 μM) or DHPG (30 μM) for 30 minutes. Reactions were terminated by the addition of perchloric acid (5%). Samples were collected and neutralized, and inositol phosphates were separated using Gravity-Fed Ion-Exchange Columns.
Functional Assessment of mGluR5 Antagonism in Cell Lines Expressing mGluR5d
The properties of the compounds of the invention can be analyzed using standard assays for pharmacological activity. Examples of glutamate receptor assays are well known in the art as described in for example Aramori et al, Neuron 8:757 (1992), Tanabe et al., Neuron 8:169 (1992), Miller et al, J. Neuroscience 15: 6103 (1995), Balazs, et al, J. Neurochemistry 69:151 (1997). The methodology described in these publications is incorporated herein by reference. Conveniently, the compounds of the invention can be studied by means of an assay (FLIPR) that measures the mobilization of intracellular calcium, [Ca^2+]i in cells expressing mGluR5 or another assay (IP3) that measures inositol phosphate turnover.
Cells expressing human mGluR5d as described in W097/05252 are seeded at a density of 100,000 cells per well on collagen coated clear bottom 96-well plates with black sides and experiments are done 24 h following seeding. […]

T1 sequence (P41594 21-942 isoform P41594-3 limits assumed): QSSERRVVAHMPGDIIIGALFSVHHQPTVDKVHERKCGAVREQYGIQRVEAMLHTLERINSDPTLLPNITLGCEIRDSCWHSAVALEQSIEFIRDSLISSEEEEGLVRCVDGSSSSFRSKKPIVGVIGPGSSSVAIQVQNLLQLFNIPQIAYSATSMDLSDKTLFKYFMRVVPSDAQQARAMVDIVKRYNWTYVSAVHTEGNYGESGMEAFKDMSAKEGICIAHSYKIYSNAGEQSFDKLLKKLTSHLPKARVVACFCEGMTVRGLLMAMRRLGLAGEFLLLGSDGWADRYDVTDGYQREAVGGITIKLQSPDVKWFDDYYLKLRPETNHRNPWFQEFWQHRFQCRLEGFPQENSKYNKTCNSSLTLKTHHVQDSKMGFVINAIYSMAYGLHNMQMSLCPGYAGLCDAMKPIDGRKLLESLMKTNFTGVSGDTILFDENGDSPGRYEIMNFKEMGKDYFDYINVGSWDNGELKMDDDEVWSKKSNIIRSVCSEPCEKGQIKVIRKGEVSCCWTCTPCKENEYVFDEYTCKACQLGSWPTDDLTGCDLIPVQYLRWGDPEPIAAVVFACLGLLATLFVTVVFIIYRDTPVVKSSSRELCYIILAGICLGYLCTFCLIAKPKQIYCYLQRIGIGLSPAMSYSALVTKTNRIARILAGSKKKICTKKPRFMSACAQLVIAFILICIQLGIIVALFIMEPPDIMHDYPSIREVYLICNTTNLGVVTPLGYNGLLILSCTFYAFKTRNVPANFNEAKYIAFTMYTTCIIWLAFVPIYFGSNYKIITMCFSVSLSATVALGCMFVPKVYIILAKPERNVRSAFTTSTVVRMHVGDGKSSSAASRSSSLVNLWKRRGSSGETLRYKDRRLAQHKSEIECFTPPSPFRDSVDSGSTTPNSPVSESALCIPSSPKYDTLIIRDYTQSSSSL

EC50 | SMILES
219 nM | N#Cc1cccnc1N1CCN2[C@@H](CC[C@@H]2c2cn(-c3cccc(F)c3)nn2)C1 (racemic) [Example 4.1, (±)-2-[(6R,8aS)-6-[1-(3-fluorophenyl)-1H-1,2,3-triazol4-yl]hexahydropyrrolo[1,2-a]pyrazin-2(1H)-yl]nicotinonitrile]
10 nM | N#Cc1nccnc1N1CCN2[C@@H](CC[C@@H]2c2nnn(-c3cccc(Cl)c3)n2)C1 (racemic) [Example 5.1, (±)-3-[(6R,8aS)-6-[2-(3-chlorophenyl)-2H-tetrazol-5-yl]hexahydropyrrolo[1,2-a]pyrazin-2(1H)-yl]pyrazine-2-carbonitrile]
16 nM | Cc1cccc(-n2nnc([C@H]3CC[C@H]4CN(c5ncccc5C#N)CCN43)n2)c1 (racemic) [Example 5.4, (±)-2-[(6R,8aS)-6-[2-(3-methylphenyl)-2H-tetrazol-5-yl]hexahydropyrrolo[1,2-a]pyrazin-2(1H)-yl]nicotinonitrile]
2410 nM | N#Cc1ccc(N2CCN3[C@@H](CC[C@@H]3c3cc(-c4cccc(Cl)c4)on3)C2)nc1 (racemic) [Example 6.2, (±)-6-[(6R,8aS)-6-[5-(3-chlorolphenyl)isoxazol-3-yl]hexahydropyrrolo[1,2-a]pyrazin-2(1H)-yl]nicotinonitrile]
377 nM | N#Cc1nccnc1N1CCN2[C@@H](CC[C@@H]2c2cc(-c3cccc(Cl)c3)no2)C1 (racemic) [Example 8.1, (±)-3-[(6R,8aS)-6-[3-(3-chlorophenyl)isoxazol-5-yl]hexahydropyrrolo[1,2-a]pyrazin-2(1H)-yl]pyrazine-2-carbonitrile]
159 nM | N#Cc1cccc(-c2cc([C@H]3CCC[C@H]4CN(c5nccnc5C#N)CCN43)no2)c1 (racemic) [Example 13.1, (±)-3-[(6R,9aS)-6-[5-(3-cyanophenyl)isoxazol-3-yl]octahydro-2H-pyrido[1,2-a]pyrazin-2-yl]pyrazine-2-carbonitrile]

Source: patent US20070037816A1, “Bicyclic piperazines as metabotropic glutatmate receptor antagonists” (AstraZeneca AB, priority 2005, published 2007)
